Measured values reported in ChEMBL document CHEMBL3988442, “University of Dundee, Small-Polar-MMV Screening Library” (2021).

Test system: Schistosoma mansoni
Test: High throughput screening of compounds against Schistosoma mansoni motility
Type: functional
Set-up: dose or concentration left out as unconfirmed

Compound | Percent Effect
CCCS(=O)(=O)Nc1ccc2c(c1)OCC(C)(C)C(=O)N2C | 7.848%
COc1cccc(CNc2c(C)cnc3c2c(=O)n(C)c(=O)n3C)c1 | 5.662%
CCCNC(=O)Cn1nc(C(C)C)c2cnn(C(C)(C)C)c2c1=O | -27.62%
CNC(=O)CSc1cnn(CC(=O)Nc2cccc(Cl)c2C)c(=O)c1Cl | -12.29%
COc1ccc(Br)c(C(=O)NCC2CCN(S(=O)(=O)C3CC3)CC2)c1 | -3.942%
O=C(NCC(O)c1cccs1)c1cccc(Cl)c1 (stereo not given) | -28.05%
O=C(NCC1(CO)CC1)c1cccc2ccccc12 | -62.45%
O=C(NCC(Cc1cccc(F)c1)N1CCCC1=O)c1cnccn1 (stereo not given) | 3.976%
COc1ccc(Br)c(C(=O)NCC2CCN(C(=O)c3ccoc3)CC2)c1 | -63.91%
COc1ccccc1S(=O)(=O)N1CCC(Oc2cccnn2)CC1 | -19.77%
Cn1cnnc1S(=O)(=O)C1CCN(S(=O)(=O)C2CC2)CC1 | -25.74%
CNC(=O)CS(=O)(=O)C1CCN(S(=O)(=O)C2CC2)CC1 | 7.856%
CNC(=O)CS(=O)(=O)C1CCN(S(=O)(=O)c2c(F)cccc2F)CC1 | -27.81%
CCOc1ccc(CN(C)C(=O)NC(C)c2nncn2C)cc1 (stereo not given) | -46.5%
Cc1cc(NC(=O)CCc2ccsc2)n(C)n1 | 18.83%
O=C1CN(Cc2nnc(-c3ccc(Br)o3)o2)CCN1 | -20.64%
CC(C)(C)NC(=O)CNC(=O)CCc1ccccc1Br | 20.34%
CS(=O)(=O)NCCNC(=O)C1(c2cccc(Cl)c2)CC1 | 21.58%
CN(C)CCN(Cc1ccc(Cl)cc1)C(=O)c1cc[nH]n1 | 46.97%
O=C(CCc1ccccc1)Nc1ncccc1OC(F)F | -1.295%
O=C(Nc1ccnc(OC2CCOC2)c1)C1CCC1 (stereo not given) | -37.1%
CCC(C)N(C)S(=O)(=O)c1ccc(CCNC(C)=O)s1 (stereo not given) | -44.53%

Compound | Percent Effect
CC(C)c1cnc(CNc2c(F)cccc2-n2cccn2)o1 | 20.62%
COCc1ccccc1NC(=O)[C@@H]1CCCN1C(=O)c1ccco1 | -9.117%
O=C(c1ccc(Br)s1)N1CCN(Cc2ccc(OC(F)(F)F)cc2)CC1 | 31.43%
O=C(c1cc(Cl)cc(Cl)c1)N1CCN(c2nccs2)CC1 | -19.81%
O=C(NCCCn1cccn1)C1(c2ccc(Br)cc2)CC1 | 14.19%
O=C1NCCCCC1Sc1nnc(-c2cccnc2)n1C1CC1 (stereo not given) | -73.97%
CC1(NC(=O)Cc2csc(C(C)(C)C)n2)CCS(=O)(=O)C1 (stereo not given) | -25.94%
COCC(NC(=O)c1cc[nH]n1)c1cccc(C(F)(F)F)c1 (stereo not given) | -87.52%
COCC(NC(=O)c1ccc[nH]1)c1cccc(C(F)(F)F)c1 (stereo not given) | -105.3%
CCc1nc2n(n1)CC(Nc1cc(C)nc3ncnn13)CC2 (stereo not given) | -43.49%
O=C(NS(=O)(=O)c1cc(Cl)sc1Cl)c1cccc2c1OCCO2 | -35.56%
Cc1ccc(S(=O)(=O)NC(=O)c2cccc3c2OCCO3)c(C)c1 | -13.74%
Cc1cccc(C(=O)N2CCN(S(C)(=O)=O)[C@@H](C)C2)c1C | -56.44%
CC(C)(C)C(=O)NCCC(=O)NC(C)(C)c1ccc2c(c1)OCCO2 | -18.95%
Cc1n[nH]c(C2CN(C(=O)CCc3ccsc3)CCO2)n1 (stereo not given) | -49.32%
c1csc(-c2nc(CN3CCCC3Cn3cncn3)co2)c1 (stereo not given) | -94.11%
CCc1nc(CN2CCCC(N(C)Cc3cnc(C)s3)C2)no1 (stereo not given) | 23.33%
CCc1noc(C(C)N(C)CC(=O)Nc2cccc(C)n2)n1 (stereo not given) | 0.2571%
COc1ccc(C2CCCCCN2S(=O)(=O)N(C)C)cc1 (stereo not given) | 18.41%
CNC(=O)COc1ccc(CNCc2ccc(F)cc2F)cc1 | -31.94%
Cc1csc(CNC(=O)Nc2cc(C(F)(F)F)c[nH]c2=O)n1 | 7.294%
CCCN1CCC(NC(=O)c2ccc(F)cc2I)CC1 | 16.82%

Compound | Percent Effect
CNC(=O)CCNC(=O)c1cccc(Cn2nc(C)cc2C)c1 | -2.451%
CN(C)S(=O)(=O)N1CCC(Oc2ccc(C#N)cc2)CC1 | 21.82%
COc1ccc(CNC(=O)NCC2CCOC2)c(C(F)(F)F)c1 (stereo not given) | -32.81%
Cc1nc(C)n(CC2CN(CC(=O)Nc3nccs3)CCO2)n1 (stereo not given) | -3.889%
O=C(CCc1cscn1)NS(=O)(=O)c1ccc2ccccc2c1 | 22.96%
Cc1cc(F)ccc1CNCCn1cccn1 | -28.39%
Cc1nc(CN2CCC(N(C)Cc3noc(C(C)C)n3)C2)cs1 (stereo not given) | -19.62%
Cc1nn(C)c(C)c1C1COCCN1C(=O)Cc1cccc(F)c1 (stereo not given) | -11.98%
Cc1ccc(NC(C)C(=O)NCc2cccs2)cc1C (stereo not given) | -60.11%
COc1ccc(C2CCCN2C(=O)NCCNc2ncccn2)cc1 (stereo not given) | -55.34%
CC(C)S(=O)(=O)NCC1CCCN(C(=O)c2cccnc2)C1 (stereo not given) | -61.29%
O=C(NCC1CC1)C1CSCN1S(=O)(=O)c1cccc(F)c1 (stereo not given) | -77.75%
COc1ccccc1CC(=O)NCCCN1CCCC1C(=O)N(C)C (stereo not given) | -6.29%
CSCC(CCO)NC(=O)Nc1cccc(Br)c1 (stereo not given) | -21.75%
Cc1ccc(C(=O)O)cc1S(=O)(=O)Nc1nn(-c2ccccc2)cc1C | -27.39%
Cc1n[nH]c(C)c1C1CCCN1C(=O)NCC(=O)NC(C)(C)C (stereo not given) | -7.96%
COc1ccc(C2CCCN2C(=O)CCNc2ncccn2)cc1 (stereo not given) | -36.49%
Cc1nc(C)n(CC2CCCN2CC(=O)NCc2ccco2)n1 (stereo not given) | -29.3%
Cc1cccc(CCC(=O)N2CCOCC2c2c(C)n[nH]c2C)c1 (stereo not given) | -56.4%
Cc1n[nH]c(C)c1C1CCCN1C(=O)NCCSC(C)(C)C (stereo not given) | -28.72%
CNC(=O)C(C)(C)NC(=O)c1cc(OCC2CCC2)cc(C(=O)OC)c1 | -68.4%
NC(=O)c1cccc(CC2CCN(C(=O)CO)C2)c1 (stereo not given) | -14.33%

Compound | Percent Effect
COCCN1CCC(CN(CC2CCCO2)C(=O)COC)CC1 (stereo not given) | 27.45%
COCCN1CCN(C(=O)c2cc(C(C)C)on2)[C@H]2CS(=O)(=O)C[C@H]21 | 3.129%
CCOCCOc1ccccc1C(=O)N1CCCC(c2ncc[nH]2)C1 (stereo not given) | -53.5%
Oc1cc(CCC2CCCCN2)cc(-c2ccncc2)c1 (stereo not given) | 6.025%
CN(Cc1ncc[nH]1)S(=O)(=O)c1cccc(C(=O)N2CCOCC2)c1 | -64.53%
Cc1ccc(-c2cn[nH]c2C2CCCN(c3nccc(N)n3)C2)cc1 (stereo not given) | 94.46%
CN(Cc1ccccc1)CC1(O)CCCN(CC(C)(C)C)C1=O (stereo not given) | 9.775%
c1ccc(-c2noc3c2CN(CC2CC2)CC3)cc1 | -116.8%
CCn1c(N)nc2cc(C(=O)NCCc3ccccc3C)cnc21 | -46.13%
Cc1nc[nH]c1CN1C[C@@H]2CC[C@H](C1)N(C(=O)CCNS(C)(=O)=O)C2 | 1.774%
O=C(Nc1ccc(F)cc1)N1C[C@H]2CC[C@@H]1CN(Cc1cccnc1)C2 | -3.001%
CCc1nnc(CN(C)c2nc(C(C)C)nc3c2cnn3C)o1 | -37.68%
O=C(CCc1ccccc1)C1CCCN(C(=O)c2ncc(F)cc2F)C1 (stereo not given) | -32.14%
CN(C)C(=O)N1CCN(C(=O)C(c2ccccc2F)N(C)C)CC1 (stereo not given) | -1.181%
CS(=O)(=O)N1CCC(Oc2ccc(C(=O)N3CCSCC3)cc2Cl)CC1 | -0.7709%
CC(C)=CCN1C(=O)[C@H]2CC[C@@H]1CN(Cc1cccnc1N)C2 | -5.593%
CCc1ncc2c(n1)CN(C(=O)COC)C2 | -20.5%
Cc1ccsc1[C@@H]1CCN(C(=O)CCC(=O)N2CCCCCC2)C[C@H]1O | -14.8%
NC(=O)c1cccc(CC2CCN(C(=O)CCCN3CCOCC3)C2)c1 (stereo not given) | -44.07%
O=C(CCc1cc2n(n1)CCCN(C(=O)c1ccccn1)C2)NC1CC1 | -25.84%
Cc1nc(CN2CCCC2c2nc(C(C)C)no2)cs1 (stereo not given) | -46.84%
CC(C)C1CN(c2ncccn2)CCC(=O)N1Cc1ccc(F)cc1 (stereo not given) | -32.66%

Compound | Percent Effect
CC(=O)Nc1cccc(C(=O)Nc2cnc3n2CCCC3)c1 | -24.57%
Cc1ccc2cc(C3(O)CCN(C(=O)CN4CCCC4)CC3)ccc2n1 | 5.836%
CC(C)C(=O)N1CCN(C(=O)c2cc(C(C)C)on2)[C@H]2CS(=O)(=O)C[C@H]21 | -39.14%
CSCCC(=O)N1CCC(Oc2cc(C)ccc2F)(C(=O)O)CC1 | 12.24%
CCn1c(N)nc2cc(C(=O)NCc3ccccc3Cl)cnc21 | -40.17%
COc1ccccc1OCc1cc(C(=O)N2CC=CC2C(C)C)n[nH]1 (stereo not given) | -26.69%
Cc1occc1C(=O)N1CCC2(CCCN(CC3CCC3)C2=O)C1 (stereo not given) | -40.66%
Cc1ccc(S(=O)(=O)NC2CC2)cc1C | -24.32%
COCCNS(=O)(=O)c1ccc2c(c1)CCN(C(=O)c1cncn1C)C2 | 4.246%
Cc1cc(C(=O)N2CCC(c3nccn3Cc3ccncc3)CC2)no1 | -48.3%
CN(CCN1CCCCC1)C(=O)c1cc(CN2CCOCC2)on1 | -21.55%
COCCn1ccnc1C1CCCN(C(=O)CSCC2CC2)C1 (stereo not given) | -4.392%
CN(CCc1ccccc1)c1cnn(CC(=O)N2CCSCC2)c(=O)c1 | -28.25%
COc1cccc(N2CCN(Cc3ccc(NC(C)=O)cc3)CC2=O)c1 | -11.44%
O=C(c1cc(=O)[nH]c(=O)[nH]1)N1CCCCC1c1nc2cc(F)ccc2[nH]1 (stereo not given) | -2.098%
NC(=O)NCC(=O)N1C[C@H]2CC[C@@H]1CN(Cc1ccccc1)C2 | -13.56%
Cc1cc(CC(=O)N2CCCC2c2nc(C(C)C)no2)on1 (stereo not given) | -26.98%
O=C(CSCC1CC1)N1CCCC(c2nccn2Cc2ccncc2)C1 (stereo not given) | 9.639%
Cc1nn(C)c(N(C)C)c1CNCC(O)COc1ccccc1.Cl (stereo not given) | -91.65%
Cl.NC(=O)COc1ccc(CNCc2ccc(F)cc2F)cc1 | -10.97%
Cl.Cl.OC(CN1CCN(Cc2ccc(F)cc2)CC1)C1CC1 (stereo not given) | -83.95%
Cl.Cl.OC(CN1CCN(Cc2ccc(F)c(F)c2)CC1)C1CC1 (stereo not given) | -57.04%
